According to US20250313535A1, “ALPHA 4 BETA 7 INTEGRIN MODULATORS AND USES THEREOF” (DICE MOLECULES SV, INC., priority 2022, published 2025):
Read-outs that look alike come from different tables or passages of the source.

Assays:
Type in all cases: cell-based
α4β7 integrin [1] = molecular target: T1, α4β7 integrin (Homo sapiens (Human), UniProt P13612+P26010); experiment: Integrin Adhesion Assay: Protocol 1 (MAdCAM-coated plate, RPMI-8866 cells, CellTiter GLO readout)
In short: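 RPMI-8866 cells (2×10^6 per mL) added with compounds (1% DMSO) to MAdCAM-coated wells blocked in HEPES/NaCl buffer with 1 mM MnCl2, 0.1 mM CaCl2, 1% BSA; 1 h at 37° C, 5% CO2. After four washes, bound cells read by CellTiter GLO luminescence; % inhibition vs DMSO and control wells, 4-parameter fit.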

α4β7 integrin [2] = molecular target: T1, α4β7 integrin; experiment: Integrin Adhesion Assay: Protocol 4 (MAdCAM-coated plate, RPMI-8866 cells with stable LOF mutation of the ITGB1 gene); details: RPMI-8866 cells with stable LOF mutation of the ITGB1 gene; read-out: Mean IC50 α4β7 KO^a
In short: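 RPMI-8866 cells with CRISPR/Cas9 knockout of ITGB1 (2×10^6/mL) were added to MAdCAM-coated wells with compound (1% DMSO) in HEPES/NaCl buffer with 1 mM MnCl2, 0.1 mM CaCl2 and 1% BSA, then incubated 1 h at 37 °C. After four washes, adherent cells were quantified by CellTiter-Glo luminescence. Percent inhibition versus DMSO and control compound was fitted to 4-parameter curves.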

α4β1 integrin = α4β1 integrin (Homo sapiens (Human), UniProt P05556+P13612); experiment: Integrin Adhesion Assay: Protocol 5 (VCAM-coated plate, RPMI-8866 cells with stable LOF mutation of the ITGB7 gene)
In short: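 RPMI-8866 B cells with CRISPR/Cas9 ITGB7 knockout (clonal, verified by flow cytometry) adhered to VCAM-coated wells for 1 h at 37° C in HEPES/NaCl buffer with 1 mM MnCl2, 0.1 mM CaCl2, 1% BSA, 1% DMSO. Bound cells quantified by CellTiter-Glo luminescence after washing; % inhibition versus DMSO and control, 4-parameter fit.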

[3] = RPMI-8866 cells with stable LOF mutation of the ITGB7 gene, read-out: Mean IC50 α4β1 KO^b

α4β1 integrin, sequence (P13612 34-1032): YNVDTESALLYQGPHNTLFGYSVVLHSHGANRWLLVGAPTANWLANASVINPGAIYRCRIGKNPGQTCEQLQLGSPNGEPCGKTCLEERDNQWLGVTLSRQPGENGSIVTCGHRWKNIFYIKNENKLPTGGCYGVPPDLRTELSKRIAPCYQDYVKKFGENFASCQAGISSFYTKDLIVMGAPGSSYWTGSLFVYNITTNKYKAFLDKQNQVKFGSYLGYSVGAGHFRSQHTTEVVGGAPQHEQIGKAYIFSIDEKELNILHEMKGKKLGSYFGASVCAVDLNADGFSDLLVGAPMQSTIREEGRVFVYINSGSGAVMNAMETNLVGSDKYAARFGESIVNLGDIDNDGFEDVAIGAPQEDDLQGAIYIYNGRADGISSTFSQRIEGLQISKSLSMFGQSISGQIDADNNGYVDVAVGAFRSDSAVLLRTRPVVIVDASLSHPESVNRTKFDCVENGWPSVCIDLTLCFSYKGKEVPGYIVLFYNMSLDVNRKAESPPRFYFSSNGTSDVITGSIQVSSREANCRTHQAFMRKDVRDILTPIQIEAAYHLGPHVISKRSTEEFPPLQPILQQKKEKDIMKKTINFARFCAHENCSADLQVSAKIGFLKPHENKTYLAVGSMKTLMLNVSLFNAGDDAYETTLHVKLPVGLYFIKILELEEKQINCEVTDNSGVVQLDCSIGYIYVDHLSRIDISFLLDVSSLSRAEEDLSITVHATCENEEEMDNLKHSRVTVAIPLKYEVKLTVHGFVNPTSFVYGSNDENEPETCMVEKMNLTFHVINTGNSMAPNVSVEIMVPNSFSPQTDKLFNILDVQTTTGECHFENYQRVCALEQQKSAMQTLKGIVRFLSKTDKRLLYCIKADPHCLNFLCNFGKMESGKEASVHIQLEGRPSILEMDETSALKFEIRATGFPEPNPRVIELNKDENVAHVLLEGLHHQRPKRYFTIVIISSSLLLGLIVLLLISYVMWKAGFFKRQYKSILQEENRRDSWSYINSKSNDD
α4β1 integrin, sequence (P05556 21-798): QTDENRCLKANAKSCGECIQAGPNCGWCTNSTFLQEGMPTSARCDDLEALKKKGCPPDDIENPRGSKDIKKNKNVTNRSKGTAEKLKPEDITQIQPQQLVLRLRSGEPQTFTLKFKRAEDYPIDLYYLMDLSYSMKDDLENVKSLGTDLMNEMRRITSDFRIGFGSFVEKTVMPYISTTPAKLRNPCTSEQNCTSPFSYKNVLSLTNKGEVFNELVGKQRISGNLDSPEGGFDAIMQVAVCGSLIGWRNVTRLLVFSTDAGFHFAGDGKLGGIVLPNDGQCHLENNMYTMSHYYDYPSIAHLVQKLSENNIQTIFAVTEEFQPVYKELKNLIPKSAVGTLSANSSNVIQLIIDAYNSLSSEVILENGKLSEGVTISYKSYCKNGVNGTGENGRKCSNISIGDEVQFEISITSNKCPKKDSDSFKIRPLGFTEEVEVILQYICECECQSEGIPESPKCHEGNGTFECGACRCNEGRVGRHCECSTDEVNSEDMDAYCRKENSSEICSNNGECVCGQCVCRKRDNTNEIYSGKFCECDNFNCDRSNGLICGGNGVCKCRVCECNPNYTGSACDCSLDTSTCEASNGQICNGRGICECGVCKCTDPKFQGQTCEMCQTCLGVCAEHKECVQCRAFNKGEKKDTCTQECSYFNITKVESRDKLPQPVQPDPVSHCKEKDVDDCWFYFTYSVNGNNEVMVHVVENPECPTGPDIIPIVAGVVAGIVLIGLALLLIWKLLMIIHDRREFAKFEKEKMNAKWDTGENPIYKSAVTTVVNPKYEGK
T1 sequence (P13612 34-1032): as the sequence (P13612 34-1032) above
T1 sequence (P26010 20-798): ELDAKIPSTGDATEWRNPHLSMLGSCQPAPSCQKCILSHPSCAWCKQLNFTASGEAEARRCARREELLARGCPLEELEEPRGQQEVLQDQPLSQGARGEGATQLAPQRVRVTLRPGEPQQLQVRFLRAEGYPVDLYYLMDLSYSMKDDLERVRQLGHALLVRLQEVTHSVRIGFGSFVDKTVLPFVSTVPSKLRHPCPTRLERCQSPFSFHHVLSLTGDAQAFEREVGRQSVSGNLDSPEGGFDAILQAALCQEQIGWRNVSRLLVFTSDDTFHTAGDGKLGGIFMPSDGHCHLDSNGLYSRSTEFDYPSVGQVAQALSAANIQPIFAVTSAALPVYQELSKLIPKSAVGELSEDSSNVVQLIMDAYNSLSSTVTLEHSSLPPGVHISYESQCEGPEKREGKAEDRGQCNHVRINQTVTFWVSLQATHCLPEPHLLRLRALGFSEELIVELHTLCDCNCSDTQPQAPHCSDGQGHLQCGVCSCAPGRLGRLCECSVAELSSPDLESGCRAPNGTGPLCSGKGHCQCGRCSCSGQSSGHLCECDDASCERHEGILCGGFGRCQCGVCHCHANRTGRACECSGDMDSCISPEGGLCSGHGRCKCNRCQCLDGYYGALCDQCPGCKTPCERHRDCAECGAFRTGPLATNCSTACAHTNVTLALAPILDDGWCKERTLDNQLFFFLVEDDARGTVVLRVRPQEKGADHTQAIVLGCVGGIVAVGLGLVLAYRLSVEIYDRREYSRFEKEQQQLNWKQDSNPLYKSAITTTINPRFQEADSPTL

## Cn1c(C(=O)N[C@@H](Cc2cccc3c(-c4c(C(F)(F)F)c5ccccc5n(C)c4=O)cccc23)C(=O)O)cnc1C1CCOCC1 [Compound 328]
α4β7 integrin [1]
  IC50: 100 to 1000 nM
α4β7 integrin [2]
  IC50: 100 to 1000 nM

## Cn1c(=O)c(-c2cccc3c(C[C@H](NC(=O)c4c(F)cc(C5CCNCC5)cc4F)C(=O)O)cccc23)c(C(F)(F)F)c2ccccc21 [Compound 365]
α4β7 integrin [1]
  IC50: 100 to 1000 nM
α4β7 integrin [2]
  IC50: 100 to 1000 nM

## Cn1ccc(C(F)(F)F)c(-c2cccc3c(C[C@H](NC(=O)c4c(F)cc(N5CCOCC5c5ccc(C(F)(F)F)cc5)cc4F)C(=O)O)cccc23)c1=O (some centres unmarked) [Compound 442]
α4β7 integrin [1]
  IC50: 100 to 1000 nM
α4β7 integrin [2]
  IC50: 100 to 1000 nM

## Cc1n[nH]c(C(F)(F)F)c1-c1cc(F)c(C(=O)N[C@@H](Cc2cccc3c(-c4c(C(F)(F)F)c5ccccc5n(C)c4=O)cccc23)C(=O)O)c(F)c1 [Compound 310]
α4β7 integrin [1]
  IC50: 100 to 1000 nM
α4β7 integrin [2]
  IC50: 100 to 1000 nM

## Cn1c(=O)c(-c2cccc3c(C[C@H](NC(=O)c4c(F)cc(N5CC6(COC6)C5)cc4F)C(=O)O)cccc23)c(C(F)(F)F)c2ccccc21 [Compound 426]
α4β7 integrin [1]
  IC50: 100 to 1000 nM
α4β7 integrin [2]
  IC50: 100 to 1000 nM

## Cn1c(=O)c(-c2cccc3c(C[C@H](NC(=O)C45CC(NCC(F)(F)F)(C4)C5)C(=O)O)cccc23)c(C(F)(F)F)c2ccccc21 [Compound 447]
α4β7 integrin [1]
  IC50: 100 to 1000 nM
α4β7 integrin [2]
  IC50: 100 to 1000 nM

## CN(C)c1ccc2c(c1)c(C(F)(F)F)c(-c1cccc3c(C[C@H](NC(=O)[C@]4(C)CC[C@@H](N5CCOC[C@@H]5C(F)(F)F)CC4)C(=O)O)cccc13)c(=O)n2C [Compound 409]
α4β7 integrin [1]
  IC50: 100 to 1000 nM
α4β7 integrin [2]
  IC50: 100 to 1000 nM

## Cn1c(=O)c(-c2cccc3c(C[C@H](NC(=O)C45CC(C(F)F)(C4)C5)C(=O)O)cccc23)c(C(F)(F)F)c2ccccc21 [Compound 390]
α4β7 integrin [1]
  IC50: 100 to 1000 nM
α4β7 integrin [2]
  IC50: 100 to 1000 nM

## Cn1c(=O)c(-c2cccc3c(C[C@H](NC(=O)c4c(F)cc(N5CC(C(F)(F)F)C5)cc4F)C(=O)O)cccc23)c(C(F)(F)F)c2ccccc21 [Compound 388]
α4β7 integrin [1]
  IC50: 100 to 1000 nM
α4β7 integrin [2]
  IC50: 100 to 1000 nM

## CN(C)CCc1cc(F)c(C(=O)N[C@@H](Cc2cccc3c(-c4c(C(F)(F)F)c5ccccc5n(C)c4=O)cccc23)C(=O)O)c(F)c1 [Compound 367]
α4β7 integrin [1]
  IC50: 100 to 1000 nM
α4β7 integrin [2]
  IC50: 100 to 1000 nM

## Cn1c(=O)c(-c2cccc3c(C[C@H](NC(=O)[C@]4(C)CC[C@@H](N5CC(F)(F)C5)CC4)C(=O)O)cccc23)c(C(F)(F)F)c2ccccc21 [Compound 399]
α4β7 integrin [1]
  IC50: 100 to 1000 nM
α4β7 integrin [2]
  IC50: 10 to 100 nM

## CN(C)c1ccc2c(c1)c(C(F)(F)F)c(-c1cccc3c(C[C@H](NC(=O)[C@]4(C)CC[C@H](N5CCOC[C@@H]5C(F)(F)F)CC4)C(=O)O)cccc13)c(=O)n2C (single isomer, unassigned) [Compound 410]
α4β7 integrin [1]
  IC50: 100 to 1000 nM
α4β7 integrin [2]
  IC50: 100 to 1000 nM

## CC[C@@](Cc1cccs1)(C(=O)N[C@@H](Cc1cccc2c(-n3c(=O)ccn(C)c3=O)cccc12)C(=O)O)c1ccccc1 [Compound 292]
α4β7 integrin [1]
  IC50: 100 to 1000 nM
α4β7 integrin [2]
  IC50: 100 to 1000 nM

## Cn1c(=O)c(-c2cccc3c(C[C@H](NC(=O)c4c(F)cc(N5CCOC[C@@H]5c5ccccc5)cc4F)C(=O)O)cccc23)c(C(F)(F)F)c2ccccc21 [Compound 336]
α4β7 integrin [1]
  IC50: 100 to 1000 nM
α4β7 integrin [2]
  IC50: 100 to 1000 nM

## Cn1c(=O)c(-c2cccc3c(C[C@H](NC(=O)c4c(F)cc(CCN5CC(F)C5)cc4F)C(=O)O)cccc23)c(C(F)(F)F)c2ccccc21 [Compound 371]
α4β7 integrin [1]
  IC50: 100 to 1000 nM
α4β7 integrin [2]
  IC50: 100 to 1000 nM

## COCCN(C)c1cc(F)c(C(=O)N[C@@H](Cc2cccc3c(-c4c(C(F)(F)F)c5ccccc5n(C)c4=O)cccc23)C(=O)O)c(F)c1 [Compound 384]
α4β7 integrin [1]
  IC50: 100 to 1000 nM
α4β1 integrin; [3]
  IC50: > 1000 nM

## Cn1ccc(C(F)(F)F)c(-c2cccc3c(C[C@H](NC(=O)c4c(F)cc(N5CCOC(CN6CCCC6)C5)cc4F)C(=O)O)cccc23)c1=O (some centres unmarked) [Compound 440]
α4β7 integrin [1]
  IC50: 10 to 100 nM
α4β1 integrin; [3]
  IC50: > 1000 nM

## CN(C)CCc1ccc2c(c1)c(C(F)(F)F)c(-c1cccc3c(C[C@H](NC(=O)c4c(F)cc(N5CCOC[C@@H]5C(F)(F)F)cc4F)C(=O)O)cccc13)c(=O)n2C [Compound 708]
α4β7 integrin [1]; protocol not given
  IC50: < 10 nM
α4β1 integrin; Protocol 5, RPMI-8866 cells with LOF mutation of ITGB7, VCAM, read-out: Mean IC50 α4β1 KO
  IC50: 100 to 1000 nM

## Cn1c(=O)c(-c2cccc3c(C[C@H](NC(=O)c4c(F)cc(N(CC(F)(F)F)CC(F)(F)F)cc4F)C(=O)O)cccc23)c(C(F)(F)F)c2ccccc21 [Compound 324]
α4β7 integrin [1]
  IC50: 10 to 100 nM
α4β1 integrin; [3]
  IC50: > 1000 nM

## COCCN(CC(F)(F)F)c1cc(F)c(C(=O)N[C@@H](Cc2cccc3c(-c4c(C(F)(F)F)c5ccccc5n(C)c4=O)cccc23)C(=O)O)c(F)c1 [Compound 385]
α4β7 integrin [1]
  IC50: 10 to 100 nM
α4β1 integrin; [3]
  IC50: > 1000 nM

## Cc1cccc(C)c1-c1nc(C)c(C(=O)N[C@@H](Cc2cccc3c(-c4c(C(F)(F)F)c5ccccc5n(C)c4=O)cccc23)C(=O)O)n1C [Compound 330]
α4β7 integrin [1]
  IC50: 10 to 100 nM
α4β1 integrin; [3]
  IC50: > 1000 nM

## CN(C)Cc1cc(-c2cccc3c(C[C@H](NC(=O)c4c(F)cc(N5CCOC[C@@H]5C(F)(F)F)cc4F)C(=O)O)cccc23)c2cnccc2c1 [Compound 445]
α4β7 integrin [1]
  IC50: < 10 nM
α4β1 integrin; [3]
  IC50: > 1000 nM

## Cn1c(=O)c(-c2cccc3c(C[C@H](NC(=O)c4c(F)cc(N(C5COC5)C5COC5)cc4F)C(=O)O)cccc23)c(C(F)(F)F)c2ccccc21 [Compound 397]
α4β7 integrin [1]
  IC50: 100 to 1000 nM
α4β1 integrin; [3]
  IC50: > 1000 nM

## O=C(N[C@@H](Cc1cccc2c(-c3cccc4ccncc34)cccc12)C(=O)O)c1c(F)cccc1CN1CCCC1 [Compound 356]
α4β7 integrin [1]
  IC50: 10 to 100 nM
α4β1 integrin; [3]
  IC50: > 1000 nM

## Cn1c(=O)c(-c2cccc3c(C[C@H](NC(=O)c4c(F)cc(N5CC(C)(C)OC(C)(C)C5)cc4F)C(=O)O)cccc23)c(C(F)(F)F)c2ccccc21 [Compound 331]
α4β7 integrin [1]
  IC50: 10 to 100 nM
α4β1 integrin; [3]
  IC50: > 1000 nM

## CO[C@@H](C)c1cc(F)c(C(=O)N[C@@H](Cc2cccc3c(-c4c(C(F)(F)F)c5ccccc5n(C)c4=O)cccc23)C(=O)O)c(F)c1 [Compound 415]
α4β7 integrin [1]
  IC50: 100 to 1000 nM
α4β1 integrin; [3]
  IC50: > 1000 nM

## CN(C)Cc1cccc2c(-c3cccc4c(C[C@H](NC(=O)[C@]5(C)CC[C@H](N6CCC(F)(F)CC6)CC5)C(=O)O)cccc34)nccc12 [Compound 424]
α4β7 integrin [1]
  IC50: < 10 nM
α4β1 integrin; [3]
  IC50: > 1000 nM

## Cn1c(=O)c(-c2cccc3c(C[C@H](NC(=O)C4(C)CCN([C@@H]5CCOC5)CC4)C(=O)O)cccc23)c(C(F)(F)F)c2ccccc21 [Compound 414]
α4β7 integrin [1]
  IC50: < 10 nM
α4β1 integrin; [3]
  IC50: > 1000 nM

## Cc1[nH]c2ccccc2c1-c1cc(F)c(C(=O)N[C@@H](Cc2cccc3c(-c4c(C(F)(F)F)c5ccccc5n(C)c4=O)cccc23)C(=O)O)c(F)c1 [Compound 327]
α4β7 integrin [1]
  IC50: 100 to 1000 nM
α4β1 integrin; [3]
  IC50: > 1000 nM

## Cn1c(=O)c(-c2cccc3c(C[C@H](NC(=O)c4c(F)cc(N(CCC(F)(F)F)C5COC5)cc4F)C(=O)O)cccc23)c(C(F)(F)F)c2ccccc21 [Compound 392]
α4β7 integrin [1]
  IC50: 10 to 100 nM
α4β1 integrin; [3]
  IC50: > 1000 nM

## CN(C)Cc1cccc2c(-c3cccc4c(C[C@H](NC(=O)[C@]5(C)CC[C@@H](N6CCOC[C@@H]6C(F)(F)F)CC5)C(=O)O)cccc34)nccc12 [Compound 418]
α4β7 integrin [1]
  IC50: < 10 nM
α4β1 integrin; [3]
  IC50: > 1000 nM

## CN(C)Cc1ccc2c(-c3cccc4c(C[C@H](NC(=O)C5(C)CCN(CC(F)(F)F)CC5)C(=O)O)cccc34)nccc2c1 [Compound 583]
α4β7 integrin [1]
  IC50: 10 to 100 nM
α4β1 integrin; [3]
  IC50: > 1000 nM

## O=C(N[C@@H](Cc1cccc2c(-c3cccc4ccncc34)cccc12)C(=O)O)c1c(F)cccc1CN1CCC(F)(F)CC1 [Compound 358]
α4β7 integrin [1]
  IC50: 10 to 100 nM
α4β1 integrin; [3]
  IC50: > 1000 nM

## Cn1c(=O)c(-c2cccc3c(C[C@H](NC(=O)c4c(F)ccc(-c5ccccn5)c4F)C(=O)O)cccc23)c(C(F)(F)F)c2ccccc21 [Compound 313]
α4β7 integrin [1]
  IC50: 10 to 100 nM
α4β1 integrin; [3]
  IC50: > 1000 nM
